According to PubChem BioAssay (NCI):
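Each compound was tested at five concentrations against cells in 96-well plates for 48 hours. GI50 marks 50% less growth. Definition used: TGI = concentration required for complete inhibition of growth.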

What follows are compounds tested on NCI-H460 lung (assay: inhibition of tumour cell growth, NCI panel, 48 h).
`CCOP(=O)(OCC)c1cc(-c2ccccc2)ccc1N` gave a TGI greater than 100 µM.
`CC1(C)OC(CCO)CN1C(=O)OCc1ccccc1` (stereo not given) gave a TGI greater than 100 µM.
In the case of `CCOC(=O)C1=C(C)NC(=O)N([N+](=O)[O-])C1c1ccccc1C(F)(F)F` (stereo not given), the TGI is reported as greater than 100 µM.
Compound `O=c1c(Cc2ccccc2)c(-c2ccccc2)[nH]n1C1=NCCN1` has a TGI greater than 100 µM.
`CCOC(=O)Cc1nn2c(=O)cc(C)nc2s1` was tested, and the TGI was greater than 100 µM.
For `COP(=O)(CC(=O)C1OC(OCc2ccccc2)C(OCc2ccccc2)C(OCc2ccccc2)C1OCc1ccccc1)OC` (stereo not given), the TGI was 38.4 µM.
In the case of `CN1c2ccccc2C(=O)NC12CCN(CC1COc3ccccc3O1)CC2` (stereo not given), the TGI is reported as greater than 100 µM.
Compound `CCOC1NC(=O)c2ccccc21` (stereo not given) has a TGI greater than 100 µM.
In the case of `Cc1cn(C2CC(OC(c3ccccc3)(c3ccccc3)c3ccccc3)C(COC(c3ccccc3)(c3ccccc3)c3ccccc3)O2)c(=O)[nH]c1=O` (stereo not given), the TGI is reported as greater than 100 µM.
`CCOC(=O)C(NC(=O)c1ccc(N=NN(C)C)cc1)C(C)C` (stereo not given) gave a TGI greater than 100 µM.
In the case of `COc1cc(CCCOC2OC(COC3OCC(O)C(O)C3O)C(O)C(O)C2O)cc2cc(-c3ccc4c(c3)OCO4)oc12` (stereo not given), the TGI is reported as greater than 175 µM.
For `O=CN(O)CC(=O)O`, the TGI was greater than 100 µM.
Work on `C(=N/Nc1ccc(-c2nc3ccccc3[nH]2)cc1)/c1c(-c2ccccc2)[nH]c2ccccc12` yielded a TGI of 32.3 µM.
Compound `CCOC(=O)c1c(NC(=S)Nc2ccc(C)cc2)sc2c1CCN(C)C2` has a TGI greater than 100 µM.
Compound `Cc1ccc(-n2cc(-c3ccc(Cl)cc3)c3c2N=CN2NC(c4ccco4)=NC32)cc1` (stereo not given) has a TGI greater than 100 µM.
`c1ccc([P+](Cc2csnn2)(c2ccccc2)c2ccccc2)cc1` was tested, and the TGI was greater than 100 µM.
`c1ccc(-c2ccc(N=NN3CCCC3)cc2)cc1` gave a TGI greater than 100 µM.
`COc1cc2nc(-c3c(F)cccc3F)n(Cc3c(F)cccc3F)c2cc1Cc1c(F)cccc1F` was tested, and the TGI was greater than 100 µM.
Compound `NS(=O)(=O)c1nnc(NSc2ccc([N+](=O)[O-])cc2)s1` has a TGI greater than 100 µM.
`Nc1nc(Nc2ccc(OCc3cccc(F)c3)cc2)c2c(n1)[nH]c1ccc(O)cc12` was tested, and the GI50 was 3.25 µM and the TGI was 9.37 µM.
`CCC1(CC)C(=O)NC(=S)N=C1N` gave a TGI greater than 100 µM.
Work on `CC1=NC(C)(C)N(O)C1(C)C` yielded a TGI greater than 100 µM.
`O=c1oc2ccccc2c2nc3ccccc3cc12` gave a TGI greater than 100 µM.
With `CCCC[C@@H]1CCN2C[C@@H](O)[C@@H](O)[C@H]2[C@@H]1O` the TGI was greater than 100 µM.
Work on `CCOC(=O)c1csc(NC(=O)CCCC#N)n1` yielded a TGI greater than 100 µM.
Work on `O=c1cc(-c2ccccc2F)[nH]c2cc3c(cc12)OCO3` yielded a TGI greater than 32.3 µM.
Compound `CC(C)(C)c1ccc2c(c1)OCc1n[nH]c(n1)COc1cc(C(C)(C)C)ccc1OCCOCCO2` has a TGI of 12.7 µM.
With `CCNC(=S)N/N=C/c1ccccn1` the TGI was 27.8 µM.
In the case of `COc1ccc(CCCCl)c(C2=NCCc3ccccc32)c1`, the TGI is reported as greater than 100 µM.
Compound `O=C(CN=C(CN(c1ccccc1)c1ccccc1)Oc1c(Cl)cc(Cl)cc1Cl)n1cnc2ccccc21` has a TGI greater than 100 µM.
With `C=C1CC=CC(C)(C)C1C/C=C(\C)C(O)CBr` (stereo not given) the TGI was greater than 100 µM.
With `CCOC(=O)C(C)NC(=O)N(C)C12CC3CC(CC(C3)C1)C2` (stereo not given) the TGI was greater than 442 µM.
In the case of `O=c1c2cc3c(=O)n(CCc4ccccc4CO)c(=O)c3cc2c(=O)n1CCc1ccccc1CO`, the TGI is reported as greater than 100 µM.
Compound `CCc1cc(=O)n(/C(C)=C/c2ccccc2)n1C` has a TGI greater than 100 µM.
`C/C(=N\Nc1nc2ccccc2s1)c1cccnn1` was tested, and the TGI was 15.1 µM.
With `FC(F)=C(c1ccc(-c2ccc(Cl)cc2)cc1)C(F)(F)F` the TGI was 33.7 µM.
`COC(=O)[C@H]1C=C[C@H](OC2OC(COC(C)=O)C(OC(C)=O)C(OC(C)=O)C2OC(C)=O)n2c(=O)n(-c3ccccc3)c(=O)n21` (stereo not given in full) showed a TGI of 10.5 µM.
Work on `N/C(CSCCSC/C(N)=N/O)=N\O` yielded a TGI greater than 100 µM.

What follows are compounds tested on IGROV1 ovarian (assay: inhibition of tumour cell growth, NCI panel, 48 h).
Work on `CCOP(=O)(OCC)c1cc(-c2ccccc2)ccc1N` yielded a TGI greater than 100 µM.
With `CC1(C)OC(CCO)CN1C(=O)OCc1ccccc1` (stereo not given) the TGI was greater than 100 µM.
`COc1cc2c(cc1OCCCOc1cc3c(cc1OC)C(=O)N1CCC[C@H]1CN3)N=C[C@@H]1CCCN1C2=O` was tested, and the TGI was 0.451 µM.
Compound `CCOC(=O)C1=C(C)NC(=O)N([N+](=O)[O-])C1c1ccccc1C(F)(F)F` (stereo not given) has a TGI greater than 100 µM.
In the case of `O=c1c(Cc2ccccc2)c(-c2ccccc2)[nH]n1C1=NCCN1`, the TGI is reported as greater than 100 µM.
With `CCOC(=O)Cc1nn2c(=O)cc(C)nc2s1` the TGI was greater than 100 µM.
`COP(=O)(CC(=O)C1OC(OCc2ccccc2)C(OCc2ccccc2)C(OCc2ccccc2)C1OCc1ccccc1)OC` (stereo not given) showed a TGI greater than 100 µM.
For `CN1c2ccccc2C(=O)NC12CCN(CC1COc3ccccc3O1)CC2` (stereo not given), the TGI was greater than 100 µM.
Work on `CCOC1NC(=O)c2ccccc21` (stereo not given) yielded a TGI greater than 100 µM.
`Cc1cn(C2CC(OC(c3ccccc3)(c3ccccc3)c3ccccc3)C(COC(c3ccccc3)(c3ccccc3)c3ccccc3)O2)c(=O)[nH]c1=O` (stereo not given) showed a TGI greater than 100 µM.
With `CCOC(=O)C(NC(=O)c1ccc(N=NN(C)C)cc1)C(C)C` (stereo not given) the TGI was greater than 100 µM.
Compound `COc1cc(CCCOC2OC(COC3OCC(O)C(O)C3O)C(O)C(O)C2O)cc2cc(-c3ccc4c(c3)OCO4)oc12` (stereo not given) has a TGI greater than 175 µM.
For `O=CN(O)CC(=O)O`, the TGI was greater than 100 µM.
For `C(=N/Nc1ccc(-c2nc3ccccc3[nH]2)cc1)/c1c(-c2ccccc2)[nH]c2ccccc12`, the TGI was greater than 100 µM.
`CC1OC(n2cc(F)c(=O)[nH]c2=O)C(O[Si](C)(C)C(C)(C)C)C1O[Si](C)(C)C(C)(C)C` (stereo not given) showed a TGI of 27.3 µM.
`CCOC(=O)c1c(NC(=S)Nc2ccc(C)cc2)sc2c1CCN(C)C2` was tested, and the TGI was greater than 100 µM.
With `Cc1ccc(-n2cc(-c3ccc(Cl)cc3)c3c2N=CN2NC(c4ccco4)=NC32)cc1` (stereo not given) the TGI was 72.3 µM.
`c1ccc([P+](Cc2csnn2)(c2ccccc2)c2ccccc2)cc1` showed a TGI greater than 100 µM.
Work on `c1ccc(-c2ccc(N=NN3CCCC3)cc2)cc1` yielded a TGI greater than 100 µM.
For `CC(C)Cc1c(C#N)c(C#N)c(N)n1Cc1ccccc1`, the TGI was greater than 100 µM.
`Nc1nc(Nc2ccc(OCc3cccc(F)c3)cc2)c2c(n1)[nH]c1ccc(O)cc12` showed a GI50 of 3.75 µM and a TGI of 14.7 µM.
For `CCC1(CC)C(=O)NC(=S)N=C1N`, the TGI was greater than 100 µM.
Compound `CC1=NC(C)(C)N(O)C1(C)C` has a TGI greater than 100 µM.
`O=c1oc2ccccc2c2nc3ccccc3cc12` was tested, and the TGI was greater than 100 µM.
`CCCC[C@@H]1CCN2C[C@@H](O)[C@@H](O)[C@H]2[C@@H]1O` showed a TGI greater than 100 µM.
For `O=C(NN1C(=O)CSC1c1ccc(Cl)c(Cl)c1)c1ccncc1` (stereo not given), the TGI was greater than 100 µM.
Work on `O=c1cc(-c2ccccc2F)[nH]c2cc3c(cc12)OCO3` yielded a TGI greater than 100 µM.
In the case of `CC(C)(C)c1ccc2c(c1)OCc1n[nH]c(n1)COc1cc(C(C)(C)C)ccc1OCCOCCO2`, the TGI is reported as 23.2 µM.
`COC1OC2COC(C)(C)OC2C2OC(C)(C)OC12` (stereo not given) was tested, and the TGI was greater than 100 µM.
With `CCNC(=S)N/N=C/c1ccccn1` the TGI was greater than 100 µM.
Compound `COc1ccc(CCCCl)c(C2=NCCc3ccccc32)c1` has a TGI greater than 100 µM.
`O=C(CN=C(CN(c1ccccc1)c1ccccc1)Oc1c(Cl)cc(Cl)cc1Cl)n1cnc2ccccc21` was tested, and the TGI was greater than 100 µM.
`C=C1CC=CC(C)(C)C1C/C=C(\C)C(O)CBr` (stereo not given) was tested, and the TGI was greater than 100 µM.
Work on `CCOC(=O)C(C)NC(=O)N(C)C12CC3CC(CC(C3)C1)C2` (stereo not given) yielded a TGI greater than 500 µM.
With `O=c1c2cc3c(=O)n(CCc4ccccc4CO)c(=O)c3cc2c(=O)n1CCc1ccccc1CO` the TGI was greater than 100 µM.
For `CCc1cc(=O)n(/C(C)=C/c2ccccc2)n1C`, the TGI was greater than 100 µM.
Work on `C/C(=N\Nc1nc2ccccc2s1)c1cccnn1` yielded a TGI of 15.5 µM.
Compound `FC(F)=C(c1ccc(-c2ccc(Cl)cc2)cc1)C(F)(F)F` has a TGI of 33.9 µM.
Work on `COC(=O)[C@H]1C=C[C@H](OC2OC(COC(C)=O)C(OC(C)=O)C(OC(C)=O)C2OC(C)=O)n2c(=O)n(-c3ccccc3)c(=O)n21` (stereo not given in full) yielded a TGI of 18.4 µM.
For `N/C(CSCCSC/C(N)=N/O)=N\O`, the TGI was greater than 100 µM.

These compounds were tested on A498 renal (assay: inhibition of tumour cell growth, NCI panel, 48 h).
With `CCOP(=O)(OCC)c1cc(-c2ccccc2)ccc1N` the TGI was greater than 100 µM.
For `CC1(C)OC(CCO)CN1C(=O)OCc1ccccc1` (stereo not given), the TGI was greater than 100 µM.
Work on `COc1cc2c(cc1OCCCOc1cc3c(cc1OC)C(=O)N1CCC[C@H]1CN3)N=C[C@@H]1CCCN1C2=O` yielded a GI50 of 0.262 µM and a TGI of 0.668 µM.
`CCOC(=O)C1=C(C)NC(=O)N([N+](=O)[O-])C1c1ccccc1C(F)(F)F` (stereo not given) gave a TGI greater than 100 µM.
For `O=c1c(Cc2ccccc2)c(-c2ccccc2)[nH]n1C1=NCCN1`, the TGI was greater than 100 µM.
With `CN1c2ccccc2C(=O)NC12CCN(CC1COc3ccccc3O1)CC2` (stereo not given) the TGI was 98.4 µM.
With `Cc1cn(C2CC(OC(c3ccccc3)(c3ccccc3)c3ccccc3)C(COC(c3ccccc3)(c3ccccc3)c3ccccc3)O2)c(=O)[nH]c1=O` (stereo not given) the TGI was 73.8 µM.
`CCOC(=O)C(NC(=O)c1ccc(N=NN(C)C)cc1)C(C)C` (stereo not given) gave a TGI greater than 100 µM.
Compound `COc1cc(CCCOC2OC(COC3OCC(O)C(O)C3O)C(O)C(O)C2O)cc2cc(-c3ccc4c(c3)OCO4)oc12` (stereo not given) has a TGI greater than 27.7 µM.
Work on `O=C1c2c(c3c4ccc(Br)cc4oc3c3[nH]c4ccccc4c23)C(=O)N1O` yielded a GI50 of 0.585 µM and a TGI of 4.41 µM.
Compound `O=CN(O)CC(=O)O` has a TGI greater than 100 µM.
`CC1OC(n2cc(F)c(=O)[nH]c2=O)C(O[Si](C)(C)C(C)(C)C)C1O[Si](C)(C)C(C)(C)C` (stereo not given) showed a TGI of 27.3 µM.
`CCOC(=O)c1c(NC(=S)Nc2ccc(C)cc2)sc2c1CCN(C)C2` was tested, and the TGI was greater than 100 µM.
With `Cc1ccc(-n2cc(-c3ccc(Cl)cc3)c3c2N=CN2NC(c4ccco4)=NC32)cc1` (stereo not given) the TGI was 29.2 µM.
`c1ccc([P+](Cc2csnn2)(c2ccccc2)c2ccccc2)cc1` gave a TGI greater than 100 µM.
For `c1ccc(-c2ccc(N=NN3CCCC3)cc2)cc1`, the TGI was greater than 100 µM.
`COc1cc2nc(-c3c(F)cccc3F)n(Cc3c(F)cccc3F)c2cc1Cc1c(F)cccc1F` gave a TGI greater than 100 µM.
`CC(C)Cc1c(C#N)c(C#N)c(N)n1Cc1ccccc1` was tested, and the TGI was greater than 100 µM.
With `NS(=O)(=O)c1nnc(NSc2ccc([N+](=O)[O-])cc2)s1` the TGI was greater than 100 µM.
`Nc1nc(Nc2ccc(OCc3cccc(F)c3)cc2)c2c(n1)[nH]c1ccc(O)cc12` gave a GI50 of 15.7 µM and a TGI of 33.1 µM.
In the case of `CCC1(CC)C(=O)NC(=S)N=C1N`, the TGI is reported as greater than 100 µM.
`CC1=NC(C)(C)N(O)C1(C)C` was tested, and the TGI was greater than 100 µM.
